Where two headings read alike, the source gives them in different places.
Legend:
ALK = molecular target: T1, ALK (Homo sapiens, UniProt Q9UM73); test: ALK Kinase Assay (ELISA/TRF, PLC-γ substrate); assay type: biochemical; settings: read-out: ALK Potency
T1 construct: host or cells: baculovirus expression system
Summary of the method: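 Time-resolved fluorescence ELISA using Eu-N1 PT66 antibody to detect phosphorylated PLC-γ (coated at 10 μg/mL). Enzyme at 30 ng/ml ALK; 15 min incubation, 37° C.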

JAK2 = molecular target: T2, JAK2 (Homo sapiens, UniProt O60674); test: Recombinant Human JAK2 Kinase Assay (TRF); assay type: biochemical; settings: read-out: JAK2 Potency
T2 construct: host or cells: baculovirus expression system
T2 sequence (O60674 whole entry): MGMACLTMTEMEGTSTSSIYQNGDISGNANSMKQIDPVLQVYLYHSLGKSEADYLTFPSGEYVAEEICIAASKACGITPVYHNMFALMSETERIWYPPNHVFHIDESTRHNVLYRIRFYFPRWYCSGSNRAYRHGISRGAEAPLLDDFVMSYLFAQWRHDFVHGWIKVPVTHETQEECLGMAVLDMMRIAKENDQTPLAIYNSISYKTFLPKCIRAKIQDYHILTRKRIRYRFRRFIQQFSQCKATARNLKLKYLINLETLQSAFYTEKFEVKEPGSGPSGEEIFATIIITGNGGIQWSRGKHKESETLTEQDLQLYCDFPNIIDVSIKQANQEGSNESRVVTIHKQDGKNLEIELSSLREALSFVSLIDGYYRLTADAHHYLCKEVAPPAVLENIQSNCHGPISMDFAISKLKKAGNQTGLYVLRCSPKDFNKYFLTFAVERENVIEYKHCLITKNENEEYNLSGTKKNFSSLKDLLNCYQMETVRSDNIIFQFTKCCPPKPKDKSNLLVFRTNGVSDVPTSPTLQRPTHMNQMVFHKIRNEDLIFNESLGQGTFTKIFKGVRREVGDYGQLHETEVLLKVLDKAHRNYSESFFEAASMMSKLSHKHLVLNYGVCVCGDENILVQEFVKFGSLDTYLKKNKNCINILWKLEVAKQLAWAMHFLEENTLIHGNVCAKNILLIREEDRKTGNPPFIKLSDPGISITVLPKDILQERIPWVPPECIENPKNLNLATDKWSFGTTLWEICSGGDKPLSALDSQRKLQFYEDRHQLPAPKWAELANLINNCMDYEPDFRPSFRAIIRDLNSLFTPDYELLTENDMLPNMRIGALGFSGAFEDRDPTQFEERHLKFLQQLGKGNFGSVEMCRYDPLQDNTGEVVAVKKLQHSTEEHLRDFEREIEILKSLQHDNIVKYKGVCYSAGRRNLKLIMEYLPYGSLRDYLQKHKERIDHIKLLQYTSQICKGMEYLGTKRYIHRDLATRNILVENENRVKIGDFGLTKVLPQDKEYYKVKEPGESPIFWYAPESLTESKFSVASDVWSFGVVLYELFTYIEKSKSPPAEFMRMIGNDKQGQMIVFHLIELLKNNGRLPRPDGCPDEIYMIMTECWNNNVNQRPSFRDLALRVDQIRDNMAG
Summary of the method: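 Baculovirus-expressed JAK2 (15 ng/ml) phosphorylated a biotinylated 15-mer peptide captured on Neutravidin, in 20 mM HEPES pH 7.2, 0.2 μM ATP, 1 mM MnCl2, 0.1% BSA, 2.5% DMSO final, 20 min at room temperature. Phosphoproduct detected by time-resolved fluorescence with Eu-N1-labelled PY100 antibody.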

[1] = ALK kinase inhibition, 1 μM ATP
[2] = JAK2 kinase inhibition, 0.2 μM ATP

T1 sequence (Q9UM73 19-1620): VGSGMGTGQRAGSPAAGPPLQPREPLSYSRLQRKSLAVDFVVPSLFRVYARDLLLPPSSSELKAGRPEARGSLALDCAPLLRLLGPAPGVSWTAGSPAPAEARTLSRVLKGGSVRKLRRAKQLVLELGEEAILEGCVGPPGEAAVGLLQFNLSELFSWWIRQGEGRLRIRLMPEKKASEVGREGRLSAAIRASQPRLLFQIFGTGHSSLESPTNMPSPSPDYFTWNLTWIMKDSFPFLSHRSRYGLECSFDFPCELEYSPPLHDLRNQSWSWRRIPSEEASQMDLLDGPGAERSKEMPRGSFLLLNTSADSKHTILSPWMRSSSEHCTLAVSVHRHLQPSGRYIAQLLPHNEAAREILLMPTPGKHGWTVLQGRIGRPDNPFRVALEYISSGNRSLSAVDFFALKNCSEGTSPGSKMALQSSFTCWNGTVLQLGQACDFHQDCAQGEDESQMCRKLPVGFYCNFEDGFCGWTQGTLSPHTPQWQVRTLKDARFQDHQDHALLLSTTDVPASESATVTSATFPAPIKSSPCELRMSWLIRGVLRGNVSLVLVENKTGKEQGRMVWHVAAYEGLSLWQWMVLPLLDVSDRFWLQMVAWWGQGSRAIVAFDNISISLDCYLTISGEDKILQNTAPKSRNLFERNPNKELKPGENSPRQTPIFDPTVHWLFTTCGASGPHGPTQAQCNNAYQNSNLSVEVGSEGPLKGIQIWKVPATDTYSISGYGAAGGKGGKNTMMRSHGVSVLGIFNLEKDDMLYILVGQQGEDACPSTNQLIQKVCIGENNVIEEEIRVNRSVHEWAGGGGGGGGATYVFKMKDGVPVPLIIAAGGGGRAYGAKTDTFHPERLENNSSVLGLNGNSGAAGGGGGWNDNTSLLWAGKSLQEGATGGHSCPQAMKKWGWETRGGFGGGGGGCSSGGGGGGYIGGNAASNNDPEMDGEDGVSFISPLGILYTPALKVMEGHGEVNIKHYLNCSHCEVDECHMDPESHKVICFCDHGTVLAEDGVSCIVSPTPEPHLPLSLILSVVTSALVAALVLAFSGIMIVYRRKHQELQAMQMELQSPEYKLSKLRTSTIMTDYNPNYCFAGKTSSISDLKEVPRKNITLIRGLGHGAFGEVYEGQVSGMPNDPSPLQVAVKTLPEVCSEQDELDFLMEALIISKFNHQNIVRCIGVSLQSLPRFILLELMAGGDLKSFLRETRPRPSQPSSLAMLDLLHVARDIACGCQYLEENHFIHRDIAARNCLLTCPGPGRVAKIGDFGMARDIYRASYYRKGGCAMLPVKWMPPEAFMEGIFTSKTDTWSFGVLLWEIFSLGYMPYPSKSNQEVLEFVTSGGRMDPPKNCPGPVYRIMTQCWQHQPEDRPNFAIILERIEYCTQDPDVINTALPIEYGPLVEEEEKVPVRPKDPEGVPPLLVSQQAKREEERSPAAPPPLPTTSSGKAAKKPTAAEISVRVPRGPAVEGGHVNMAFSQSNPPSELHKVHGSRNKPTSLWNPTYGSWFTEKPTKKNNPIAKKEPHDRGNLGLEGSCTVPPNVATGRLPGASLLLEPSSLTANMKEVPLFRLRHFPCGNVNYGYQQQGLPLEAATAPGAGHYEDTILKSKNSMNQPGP

Molecule | IC50 (ALK; ALK Kinase Inhibition) | IC50 (JAK2; JAK2 Kinase Inhibition) | IC50 (ALK; [1]) | IC50 (JAK2; [2])
NC(=O)CN1CCC(c2ccc(Nc3ncc4ccc(-c5ncccn5)n4n3)cc2)CC1 [Example 1568, 2-{4-[4-(7-Pyrimidin-2-yl-pyrrolo[2,1-f][1,2,4]triazin-2-ylamino)-phenyl]-piperidin-1-yl}-acetamide] | 1000 to 10000 nM | < 100 nM | – | –
COc1cc2c(cc1Nc1ncc3ccc(-c4ccccc4OC)n3n1)CN(C(C)C)C2 [Example 877, (2-Isopropyl-6-methoxy-2,3-dihydro-1H-isoindol-5-yl)-[7-(2-methoxy-phenyl)-pyrrolo[2,1-f][1,2,4]triazin-2-yl]-amine] | – | – | < 100 nM | < 100 nM
CC(=O)Nc1cccc(Nc2ncc3ccc(-c4cccc(COC(C)(C)C)c4)n3n2)c1 [Example 1559, N-{3-[7-(3-tert-Butoxymethyl-phenyl)-pyrrolo[2,1-f][1,2,4]triazin-2-ylamino]-phenyl}-acetamide] | 1000 to 10000 nM | < 100 nM | – | –
COCc1ccccc1-c1ccc2cnc(Nc3ccc(N4CCN(C)CC4)cc3)nn12 [Example 1500, [7-(2-Methoxymethyl-phenyl)-pyrrolo[2,1-f][1,2,4]triazin-2-yl]-[4-(4-methyl-piperazin-1-yl)-phenyl]-amine] | < 100 nM | < 100 nM | – | –
COc1ccc(-c2ccc3cnc(Nc4ccc(F)c(N5CCOCC5)c4)nn23)cn1 [Example 392, (4-Fluoro-3-morpholin-4-yl-phenyl)-[7-(6-methoxy-pyridin-3-yl)-pyrrolo[2,1-f][1,2,4]triazin-2-yl]-amine] | 1000 to 10000 nM | < 100 nM | – | –
COc1ccc(-c2ccc3cnc(Nc4ccc(CN5CCS(=O)(=O)CC5)cc4)nn23)cn1 [Example 1051, [4-(1,1-Dioxo-1$1(6)-thiomorpholin-4-ylmethyl)-phenyl]-[7-(6-methoxy-pyridin-3-yl)-pyrrolo[2,1-f][1,2,4]triazin-2-yl]-amine] | – | – | > 10000 nM | < 100 nM
CC(=O)Nc1cccc(Nc2ncc3ccc(-c4cccc(S(=O)(=O)NC(C)(C)C)c4)n3n2)c1 [Example 1368, N-{3-[7-(3-tert-Butylsulfamoyl-phenyl)-pyrrolo[2,1-f][1,2,4]triazin-2-ylamino]-phenyl}-acetamide] | 100 to 1000 nM | < 100 nM | – | –
COc1cc(C2CCN(C)CC2C)ccc1Nc1ncc2ccc(-c3ccccc3OC)n2n1 (racemic) [Example 858, (±)-[4-(1,3-Dimethyl-piperidin-4-yl)-2-methoxy-phenyl]-[7-(2-methoxy-phenyl)-pyrrolo[2,1-f][1,2,4]triazin-2-yl]-amine] | – | – | < 100 nM | 100 to 1000 nM
COc1cc(CN2CCC(O)CC2)ccc1Nc1ncc2ccc(-c3ccccc3OC)n2n1 [Example 1235, 1-{3-Methoxy-4-[7-(2-methoxy-phenyl)-pyrrolo[2,1-f][1,2,4]triazin-2-ylamino]-benzyl}-piperidin-4-ol] | – | – | < 100 nM | 100 to 1000 nM
COc1cc(N2CCN(C[C@@H](C)O)CC2)ccc1Nc1ncc2ccc(-c3ccccc3OC)n2n1 [Example 754, (R)-1-(4-{3-Methoxy-4-[7-(2-methoxy-phenyl)-pyrrolo[2,1-f][1,2,4]triazin-2-ylamino]-phenyl}-piperazin-1-yl)-propan-2-ol] | – | – | < 100 nM | < 100 nM
COc1cc(C2CCNCC2)ccc1Nc1ncc2c(C)cc(-c3ccccc3N(C)S(C)(=O)=O)n2n1 [Example 1263, N-{2-[2-(2-Methoxy-4-piperidin-4-yl-phenylamino)-5-methyl-pyrrolo[2,1-f][1,2,4]triazin-7-yl]-phenyl}-N-methyl-methanesulfonamide] | – | – | < 100 nM | 100 to 1000 nM
COc1c(Nc2ncc3ccc(-c4ccccc4N(C)S(C)(=O)=O)n3n2)cccc1C(=O)N1CCN(CCO)CC1 [Example 1232, N-[2-(2-{3-[4-(2-Hydroxy-ethyl)-piperazine-1-carbonyl]-2-methoxy-phenylamino}-pyrrolo[2,1-f][1,2,4]triazin-7-yl)-phenyl]-N-methyl-methanesulfonamide] | – | – | 100 to 1000 nM | > 10000 nM
COc1cc(N2CCC(N(C)C)CC2)ccc1Nc1ncc2ccc(-c3ccccc3OC)n2n1 [Example 476, [4-(4-Dimethylamino-piperidin-1-yl)-2-methoxy-phenyl]-[7-(2-methoxy-phenyl)-pyrrolo[2,1-f][1,2,4]triazin-2-yl]-amine] | – | – | < 100 nM | < 100 nM
COc1cc(C2CCNCC2)ccc1Nc1ncc2ccc(N3CC(c4ccccc4)CC3=O)n2n1 (stereo not shown) [Example 719, 1-[2-(2-Methoxy-4-piperidin-4-yl-phenylamino)-pyrrolo[2,1-f][1,2,4]triazin-7-yl]-4-phenyl-pyrrolidin-2-one] | – | – | 100 to 1000 nM | 1000 to 10000 nM
Cc1nc2cc(Nc3ncc4ccc(-c5cccc(S(=O)(=O)NC(C)(C)C)c5)n4n3)ccc2s1 [Example 574, N-tert-Butyl-3-[2-(2-methyl-benzothiazol-5-ylamino)-pyrrolo[2,1-f][1,2,4]triazin-7-yl]-benzenesulfonamide] | – | – | 1000 to 10000 nM | < 100 nM
N#Cc1ccc(-c2ccc3cnc(Nc4ccc(N5CCOCC5)cc4)nn23)cn1 [Example 37, 5-[2-(4-Morpholin-4-yl-phenylamino)-pyrrolo[2,1-f][1,2,4]triazin-7-yl]-pyridine-2-carbonitrile] | 1000 to 10000 nM | < 100 nM | – | –

More lines, now with the values ahead:

IC50 (ALK; ALK Kinase Inhibition) | IC50 (JAK2; JAK2 Kinase Inhibition) | IC50 (ALK; [1]) | IC50 (JAK2; [2]) | Molecule
< 100 nM | < 100 nM | – | – | COc1ccc(Cl)cc1-c1ccc2cnc(Nc3ccc(CN4CCN(C)CC4)cc3)nn12 [Example 354, [7-(5-Chloro-2-methoxy-phenyl)-pyrrolo[2,1-f][1,2,4]triazin-2-yl]-[4-(4-methyl-piperazin-1-ylmethyl)-phenyl]-amine]
– | – | 100 to 1000 nM | < 100 nM | CN(c1ccccc1-c1ccc2cnc(Nc3ccc4[nH]ncc4c3)nn12)S(C)(=O)=O [Example 1338, N-{2-[2-(1H-Indazol-5-ylamino)-pyrrolo[2,1-f][1,2,4]triazin-7-yl]-phenyl}-N-methyl-methanesulfonamide]
< 100 nM | < 100 nM | – | – | COc1cc(N2CCN(C3CCN(C)CC3)CC2)ccc1Nc1ncc2ccc(-c3ccccc3OC)n2n1 [Example 231, {2-Methoxy-4-[4-(1-methyl-piperidin-4-yl)-piperazin-1-yl]-phenyl}-[7-(2-methoxy-phenyl)-pyrrolo[2,1-f][1,2,4]triazin-2-yl]-amine]
– | – | < 100 nM | < 100 nM | COc1cc2c(cc1Nc1ncc3ccc(-c4ccccc4OC)n3n1)CN(CC(N)=O)C2 [Example 864, 2-{5-Methoxy-6-[7-(2-methoxy-phenyl)-pyrrolo[2,1-f][1,2,4]triazin-2-ylamino]-1,3-dihydro-isoindol-2-yl}-acetamide]
> 10000 nM | < 100 nM | – | – | CC(=O)N1CCc2ccc(Nc3ncc4ccc(-c5cccc(S(=O)(=O)NC(C)(C)C)c5)n4n3)cc21 [Example 1372, 3-[2-(1-Acetyl-2,3-dihydro-1H-indol-6-ylamino)-pyrrolo[2,1-f][1,2,4]triazin-7-yl]-N-tert-butyl-benzenesulfonamide]
> 10000 nM | < 100 nM | – | – | CC1(C)CCC(=O)Nc2cc(Nc3ncc4cc5ccccc5n4n3)ccc21 [Example 265, 5,5-Dimethyl-8-([1,2,4]triazino[1,6-a]indol-2-ylamino)-1,3,4,5-tetrahydro-benzo[b]azepin-2-one]
– | – | 100 to 1000 nM | < 100 nM | CN1CCN(C(=O)c2cccc(Nc3ncc4ccc(-c5cccc(S(=O)(=O)NC(C)(C)C)c5)n4n3)c2)CC1 [Example 891, N-tert-Butyl-3-{2-[3-(4-methyl-piperazine-1-carbonyl)-phenylamino]-pyrrolo[2,1-f][1,2,4]triazin-7-yl}-benzenesulfonamide]
– | – | < 100 nM | 100 to 1000 nM | N-[2-(2-{4-[4-(2-Hydroxy-ethylamino)-piperidin-1-yl]-2-methoxy-phenylamino}-pyrrolo[2,1-f][1,2,4]triazin-7-yl)-phenyl]-N-methyl-methanesulfonamide [Example 798]
– | – | < 100 nM | < 100 nM | C[C@H](O)CN1CCC(c2ccc(Nc3ncc4ccc(-c5cccc(NS(C)(=O)=O)c5)n4n3)cc2)CC1 [Example 957, N-[3-(2-{4-[1-((S)-2-Hydroxy-propyl)-piperidin-4-yl]-phenylamino}-pyrrolo[2,1-f][1,2,4]triazin-7-yl)-phenyl]-methanesulfonamide]
– | – | 1000 to 10000 nM | < 100 nM | CS(=O)(=O)c1ccc(-c2ccc3cnc(Nc4ccc(-c5cccnc5)cc4)nn23)cc1 [Example 1089, [7-(4-Methanesulfonyl-phenyl)-pyrrolo[2,1-f][1,2,4]triazin-2-yl]-(4-pyridin-3-yl-phenyl)-amine]
– | – | 100 to 1000 nM | < 100 nM | COc1ccccc1-c1ccc2cnc(Nc3ccc4nn(CCN5CCOCC5)cc4c3)nn12 [Example 1351, [7-(2-Methoxy-phenyl)-pyrrolo[2,1-f][1,2,4]triazin-2-yl]-[2-(2-morpholin-4-yl-ethyl)-2H-indazol-5-yl]-amine]
– | – | 1000 to 10000 nM | < 100 nM | O=S(=O)(c1cccc(-c2ccc3cnc(Nc4ccc(-c5cccnc5)cc4)nn23)c1)N1CCOCC1 [Example 1090, {7-[3-(Morpholine-4-sulfonyl)-phenyl]-pyrrolo[2,1-f][1,2,4]triazin-2-yl}-(4-pyridin-3-yl-phenyl)-amine]
– | – | < 100 nM | < 100 nM | CCN(CC)C1CCN(c2ccc(Nc3ncc4ccc(-c5ccccc5N(C)S(C)(=O)=O)n4n3)cc2)CC1 [Example 1204, N-(2-{2-[4-(4-Diethylamino-piperidin-1-yl)-phenylamino]-pyrrolo[2,1-f][1,2,4]triazin-7-yl}-phenyl)-N-methyl-methanesulfonamide]

— patent US8471005B2 (Cephalon, Inc., priority 2008, dated 2013)
